In article PMC11727410, “Identification of Chemical Constituents from Leaves and Stems of Alpinia oxyphylla: Potential Antioxidant and Tyrosinase Inhibitory Properties” (Antioxidants, 2024):

Experiments:
[1] = ABTS radical scavenging activity assay; conditions: for Inhibitory rate (%), ABTS (Table S4): Table S4, concentration not given; for ABTS Inhibitory Rate (%): concentration 200 μM, "-" not active; for IC50: converted from μg/mL
Protocol: The ABTS radical scavenging activity was examined as previously reported at room temperature (25 °C). Briefly, 160 μL sample in DMSO with different concentrations (800, 400, 200, 100, 50, 25 μM) was reacted with 480 μL ABTS reagent in a 1.5 mL centrifuge tube away from light for 6 min. Next, 200 μL of the mixture was taken out and transferred into a 96-well plate, which was used for measuring the absorbance by a microplate reader at 734 nm (ODsample). The control (ODcontrol) and blank (ODblank) were, respectively, established from the mixture solutions of the sample in DMSO and water and the mixture solution of DMSO and ABTS reagent. Trolox was the positive control, with the same concentration with compounds. The ABTS radical scavenging capacity was calculated as following:ABTS radical scavenging capacity (%) = [1 − (ODsample − ODcontrol)/ODblank] × 100%

[2] = DPPH radical scavenging activity assay; conditions: for Inhibitory rate (%), DPPH (Table S4): Table S4, concentration not given; for DPPH Inhibitory Rate (%): concentration 200 μM; for IC50: converted from μg/mL
Protocol: The DPPH radical scavenging capacity was measured according to the following reference at room temperature (25 °C). Briefly, 320 μL sample in DMSO with different concentrations (400, 200, 100, 50, 25, 12.5 μM) was reacted with 320 μL DPPH reagent (0.1 mM) in 1.5 mL centrifuge tube away from light for 30 min. Next, 200 μL of the mixture was transferred into a 96-well plate, which was used for measuring the absorbance at 517 nm (ODsample). A control (ODcontrol) and blank (ODblank) were, respectively, established from the mixture solutions of the sample in DMSO and ethanol and the mixture solution of DMSO and DPPH reagent. Vitamin C was the positive control, with the same concentration as the compounds. The DPPH radical scavenging capacity was calculated according to the following:DPPH radical scavenging capacity (%) = [1 − (ODsample − ODcontrol)/ODblank] × 100%

Row | Compound | ABTS IC50 ± SD [1] | Inhibitory rate (%), ABTS (Table S4) [1] | ABTS Inhibitory Rate (%) [1] | IC50 [1] | DPPH IC50 ± SD [2] | Inhibitory rate (%), DPPH (Table S4) [2] | DPPH Inhibitory Rate (%) [2] | IC50 [2]
1 | COc1cc(O)cc(OC)c1O[C@@H]1O[C@H](CO)[C@@H](O)[C@H](O)[C@H]1O [Compound 19, 4-hydroxy-2,6-dimethoxyphenyl-β-D-glucoside] | 17.50 ± 0.23 µg/mL | 92.57 ± 0.10% | 92.57 ± 0.10% | 52.9 µM | 114.44 ± 0.14 µg/mL | 60.59 ± 0.17% | 60.59 ± 0.17 % | 345 µM
2 | COc1cc(CCC(=O)CCCCc2ccccc2)ccc1O [Compound 6, yakuchinone A] |  | 4.42 ± 0.12% | 4.42 ± 0.12 % |  |  | 18.77 ± 1.28% | 18.77 ± 1.28 % | 
3 | COC(=O)[C@H]1O[C@@H](Oc2c(-c3ccc(O)cc3)oc3cc(O)cc(O)c3c2=O)[C@H](O[C@@H]2O[C@@H](C)[C@H](O)[C@@H](O)[C@H]2O)[C@@H](O)[C@@H]1O [Compound 9, kaempferol 3-O-α-L-rhamnosyl-(1 → 2)-(β-D-glucuronatemethyl ester)] | 6.20 ± 0.05 µg/mL | 92.39 ± 0.27% | 92.39 ± 0.27% |  |  | 43.07 ± 3.99% | 43.07 ± 3.99 % | 
4 | O=C1C[C@@H](c2ccccc2)Oc2cc(O)cc(O)c21 [Compound 14, pinocembrin] | 27.73 ± 0.69 µg/mL | 78.11 ± 0.32% | 78.11 ± 0.32 % |  |  | 27.53 ± 1.96% | 27.53 ± 1.96 % | 
5 | OC[C@H]1O[C@@H](OCc2ccccc2)[C@H](O)[C@@H](O)[C@@H]1O [Compound 17, benzyl O-β-D-glucopyranoside] |  |  |  |  |  | 25.74 ± 1.49% | 25.74 ± 1.49 % | 
6 | COc1cc(O)c2c(=O)cc(-c3ccccc3)oc2c1 [Compound 13, tectochrysin] | 20.81 ± 0.29 µg/mL | 91.93 ± 1.68% | 91.93 ± 1.68 % |  |  | 18.61 ± 0.62% | 18.61 ± 0.62 % | 
7 | COc1cc(O)ccc1O[C@@H]1O[C@H](CO)[C@@H](O)[C@H](O)[C@H]1O [Compound 20, 1,4-dihydroxyl-3-methoxyphenyl-4-O-β-D-glucopyranoside] | 8.20 ± 0.14 µg/mL | 92.80 ± 0.31% | 92.80 ± 0.31% | 27.2 µM | 23.21 ± 2.88 µg/mL | 84.06 ± 1.79% | 84.06 ± 1.79% | 77 µM
8 | COc1ccc(-c2oc3cc(OC)cc(O)c3c(=O)c2O)cc1 [Compound 12, 3,5-dihydroxy-4′,7-dimethoxyflavone] | 8.55 ± 0.08 µg/mL | 75.07 ± 0.46% | 75.07 ± 0.46 % |  | 23.15 ± 3.24 µg/mL | 79.80 ± 2.02% | 79.80 ± 2.02 % | 
9 | O=c1ccc2c3c(c(O)cc2o1)C[C@@H](O)[C@@H](c1ccc(O)c(O)c1)O3 [Compound 16, epiphyllocoumarin] | 8.49 ± 0.06 µg/mL | 92.51 ± 0.27% | 92.51 ± 0.27% |  | 7.29 ± 0.60 µg/mL | 76.93 ± 1.34% | 76.93 ± 1.34 % | 
10 | OC[C@H]1O[C@@H](Oc2ccccc2O)[C@H](O)[C@@H](O)[C@@H]1O [Compound 21, pyrocatechol 1-O-β-D-glucopyranoside] | 46.03 ± 0.27 µg/mL | 92.57 ± 0.27% | 92.57 ± 0.27% | 169 µM | ≥ 200 µg/mL | 31.39 ± 3.99% | 31.39 ± 3.99 % | 
11 | COc1ccc([C@H]2OC[C@H]3[C@@H]2CO[C@@H]3c2ccc(OC)c(O[C@@H]3O[C@H](CO)[C@@H](O)[C@H](O)[C@H]3O)c2)cc1O [Compound 22, 4,4′-dimethoxy-3′-hydroxy-7,9′:7′,9-diepoxylignan-3-O-β-D-glucopyranoside] | 33.32 ± 0.29 µg/mL | 91.51 ± 0.21% | 91.51 ± 0.21 % |  |  | 36.91 ± 2.04% | 36.91 ± 2.04 % | 
12 | COc1cc(CC/C=C/C(=O)CCc2ccc(O)c(OC)c2)ccc1O [Compound 8, gingerenone A] | 36.06 ± 1.07 µg/mL | 90.81 ± 0.24% | 90.81 ± 0.24 % |  |  | 52.84 ± 2.47% | 52.84 ± 2.47 % | 
13 | O=c1ccc2c(O)cc3c(c2o1)C[C@@H](O)[C@@H](c1ccc(O)c(O)c1)O3 [Compound 15, isoepiphyllocoumarin] | 30.57 ± 0.93 µg/mL | 71.48 ± 0.32% | 71.48 ± 0.32 % |  |  | 36.54 ± 3.60% | 36.54 ± 3.60 % | 
